A short description of series [1]: Compound cytotoxicity, XTT-based colorimetric assay. It counts as cell-based. The following applies: human; uninfected MT2 cells, day 4, XTT. In a few lines: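 Run under the antiviral-assay protocol but without virus. Viability was read on day 4 and CC50 values were derived from the readout.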
(Tetrazolium assays rely on reduction of a dye to a coloured formazan, in cell work by metabolically active cells.)

The test system of series [2] is recombinant NL4-3 virus (Renilla luciferase) in MT-2 cells. Kind of series: HIV cell culture assay (antiviral activity, luciferase readout). It counts as cell-based. The following applies: Renilla, NL43. In a few lines:
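Antiviral EC50 was derived via the median effect equation from luciferase signal. The signal came from MT-2 cultures infected for 4–5 days with a nef-deleted, Renilla luciferase-expressing NL4-3 reporter virus (made in 293T cells) in the presence of compound dilutions.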

The values below come from patent US11541055B2, “Inhibitors of human immunodeficiency virus replication” (ViiV Healthcare UK (No. 5) LIMITED, priority 2018, dated 2023).

What is called CC50 is the concentration giving 50% cytotoxicity. The term EC50 denotes the concentration that produces a half-maximal response.

In series [1], `COc1cc(C)nc(-c2ccc3c(=O)n(-c4ccc(Cl)c5c(NS(C)(=O)=O)nn(C)c45)c([C@H](Cc4cc(F)cc(F)c4)NC(=O)Cn4nc(C(F)F)c5c4C(F)(F)[C@@H]4C[C@H]54)nc3c2)c1` (atropisomer, axis not shown; (P)) [Example 57, N—((S)-1-((3P)-3-(4-chloro-1-methyl-3-(methylsulfonamido)-1H-indazol-7-yl)-7-(4-methoxy-6-methylpyridin-2-yl)-4-oxo-3,4-dihydroquinazolin-2-yl)-2-(3,5-difluorophenyl)ethyl)-2-((3bS,4aR)-3-(difluoromethyl)-5,5-difluoro-3b,4,4a,5-tetrahydro-1H-cyclopropa[3,4]cyclopenta[1,2-c]pyrazol-1-yl)acetamide] came in with a CC50 at 4 days above 500 nM. The EC50 in series [2] came out at 0.15 nM.

`Cn1nc(NS(C)(=O)=O)c2c(Cl)ccc(-n3c([C@H](Cc4cc(F)cc(F)c4)NC(=O)Cn4nc(C(F)F)c5c4C(F)(F)[C@@H]4C[C@H]54)nc4cc(-c5cc(C(F)(F)F)cc(C(F)(F)F)n5)ccc4c3=O)c21` (atropisomer, axis not shown; (P)) [Example 58, N—((S)-1-(7-(4,6-bis(trifluoromethyl)pyridin-2-yl)-(3P)-3-(4-chloro-1-methyl-3-(methylsulfonamido)-1H-indazol-7-yl)-4-oxo-3,4-dihydroquinazolin-2-yl)-2-(3,5-difluorophenyl)ethyl)-2-((3bS,4aR)-3-(difluoromethyl)-5,5-difluoro-3b,4,4a,5-tetrahydro-1H-cyclopropa[3,4]cyclopenta[1,2-c]pyrazol-1-yl)acetamide]: in series [1], the CC50 at 4 days is above 500 nM. Further, the 50% effective concentration (EC50) in series [2] turned out to be 0.95 nM.

The molecule `Cn1nc(NS(C)(=O)=O)c2c(Cl)ccc(-n3c([C@H](Cc4cc(F)cc(F)c4)NC(=O)Cn4nc(C(F)F)c5c4C(F)(F)[C@@H]4C[C@H]54)nc4cc(-c5cccc(C(F)(F)F)n5)ccc4c3=O)c21` (atropisomer, axis not shown; (P)) [Example 59, N—((S)-1-((3P)-3-(4-chloro-1-methyl-3-(methylsulfonamido)-1H-indazol-7-yl)-4-oxo-7-(6-(trifluoromethyl)pyridin-2-yl)-3,4-dihydroquinazolin-2-yl)-2-(3,5-difluorophenyl)ethyl)-2-((3bS,4aR)-3-(difluoromethyl)-5,5-difluoro-3b,4,4a,5-tetrahydro-1H-cyclopropa[3,4]cyclopenta[1,2-c]pyrazol-1-yl)acetamide] registered a CC50 at 4 days in series [1] above 500 nM. Further, the EC50 in series [2] came to 0.12 nM.

`CCc1ncncc1-c1ccc2c(=O)n(-c3ccc(Cl)c4c(NS(C)(=O)=O)nn(C)c34)c([C@H](Cc3cc(F)cc(F)c3)NC(=O)Cn3nc(C(F)F)c4c3C(F)(F)[C@@H]3C[C@H]43)nc2c1` (atropisomer, axis not shown; (P)) [Example 60, N—((S)-1-((3P)-3-(4-chloro-1-methyl-3-(methylsulfonamido)-1H-indazol-7-yl)-7-(4-ethylpyrimidin-5-yl)-4-oxo-3,4-dihydroquinazolin-2-yl)-2-(3,5-difluorophenyl)ethyl)-2-((3bS,4aR)-3-(difluoromethyl)-5,5-difluoro-3b,4,4a,5-tetrahydro-1H-cyclopropa[3,4]cyclopenta[1,2-c]pyrazol-1-yl)acetamide]: the CC50 at 4 days in series [1] was above 500 nM. In series [2], the EC50 turned out to be 0.077 nM.

The molecule `Cn1nc(NS(C)(=O)=O)c2c(Cl)ccc(-n3c([C@H](Cc4cc(F)cc(F)c4)NC(=O)Cn4nc(C(F)F)c5c4C(F)(F)[C@@H]4C[C@H]54)nc4cc(-c5nccnc5C5CC5)ccc4c3=O)c21` (atropisomer, axis not shown; (P)) [Example 61, N—((S)-1-((3P)-3-(4-chloro-1-methyl-3-(methylsulfonamido)-1H-indazol-7-yl)-7-(3-cyclopropylpyrazin-2-yl)-4-oxo-3,4-dihydroquinazolin-2-yl)-2-(3,5-difluorophenyl)ethyl)-2-((3bS,4aR)-3-(difluoromethyl)-5,5-difluoro-3b,4,4a,5-tetrahydro-1H-cyclopropa[3,4]cyclopenta[1,2-c]pyrazol-1-yl)acetamide] yielded a CC50 at 4 days in series [1] above 500 nM. Besides, in series [2], the EC50 came out at 0.16 nM.

In series [1], `CCc1cc(-c2ccc3c(=O)n(-c4ccc(Cl)c5c(NS(C)(=O)=O)nn(C)c45)c([C@H](Cc4cc(F)cc(F)c4)NC(=O)Cn4nc(C(F)F)c5c4C(F)(F)[C@@H]4C[C@H]54)nc3c2)nc(C)n1` (atropisomer, axis not shown; (P)) [Example 62, N—((S)-1-((3P)-3-(4-chloro-1-methyl-3-(methylsulfonamido)-1H-indazol-7-yl)-7-(6-ethyl-2-methylpyrimidin-4-yl)-4-oxo-3,4-dihydroquinazolin-2-yl)-2-(3,5-difluorophenyl)ethyl)-2-((3bS,4aR)-3-(difluoromethyl)-5,5-difluoro-3b,4,4a,5-tetrahydro-1H-cyclopropa[3,4]cyclopenta[1,2-c]pyrazol-1-yl)acetamide] showed a CC50 at 4 days above 500 nM. Moreover, the EC50 in series [2] was determined as 0.11 nM.

`Cc1nc(-c2ccc3c(=O)n(-c4ccc(Cl)c5c(NS(C)(=O)=O)nn(C)c45)c([C@H](Cc4cc(F)cc(F)c4)NC(=O)Cn4nc(C(F)F)c5c4C(F)(F)[C@@H]4C[C@H]54)nc3c2)cc(C(F)(F)F)n1` (atropisomer, axis not shown; (P)) [Example 63, N—((S)-1-((3P)-3-(4-chloro-1-methyl-3-(methylsulfonamido)-1H-indazol-7-yl)-7-(2-methyl-6-(trifluoromethyl)pyrimidin-4-yl)-4-oxo-3,4-dihydroquinazolin-2-yl)-2-(3,5-difluorophenyl)ethyl)-2-((3bS,4aR)-3-(difluoromethyl)-5,5-difluoro-3b,4,4a,5-tetrahydro-1H-cyclopropa[3,4]cyclopenta[1,2-c]pyrazol-1-yl)acetamide]: in series [1], the CC50 at 4 days is above 500 nM. Also, the EC50 in series [2] worked out at 0.33 nM.

Consider `Cc1ncc(F)c(-c2ccc3c(=O)n(-c4ccc(Cl)c5c(NS(C)(=O)=O)nn(C)c45)c([C@H](Cc4cc(F)cc(F)c4)NC(=O)Cn4nc(C(F)F)c5c4C(F)(F)[C@@H]4C[C@H]54)nc3c2)n1` (atropisomer, axis not shown; (P)) [Example 64, N—((S)-1-((3P)-3-(4-chloro-1-methyl-3-(methylsulfonamido)-1H-indazol-7-yl)-7-(5-fluoro-2-methylpyrimidin-4-yl)-4-oxo-3,4-dihydroquinazolin-2-yl)-2-(3,5-difluorophenyl)ethyl)-2-((3bS,4aR)-3-(difluoromethyl)-5,5-difluoro-3b,4,4a,5-tetrahydro-1H-cyclopropa[3,4]cyclopenta[1,2-c]pyrazol-1-yl)acetamide], for which, in series [1], the CC50 at 4 days was above 500 nM. Besides, the EC50 in series [2] came to 0.093 nM.

In series [1], `Cc1nc(-c2ccc3c(=O)n(-c4ccc(Cl)c5c(NS(C)(=O)=O)nn(C)c45)c([C@H](Cc4cc(F)cc(F)c4)NC(=O)Cn4nc(C(F)F)c5c4C(F)(F)[C@@H]4C[C@H]54)nc3c2)cc(C(C)C)n1` (atropisomer, axis not shown; (P)) [Example 66, N—((S)-1-((3P)-3-(4-chloro-1-methyl-3-(methylsulfonamido)-1H-indazol-7-yl)-7-(6-isopropyl-2-methylpyrimidin-4-yl)-4-oxo-3,4-dihydroquinazolin-2-yl)-2-(3,5-difluorophenyl)ethyl)-2-((3bS,4aR)-3-(difluoromethyl)-5,5-difluoro-3b,4,4a,5-tetrahydro-1H-cyclopropa[3,4]cyclopenta[1,2-c]pyrazol-1-yl)acetamide] yielded a CC50 at 4 days above 500 nM. Besides, the EC50 in series [2] is 0.15 nM.
